In US20250205344A1, “2,4-DIOXOTETRAHYDROPYRIMIDINYL DERATIVES AS DEGRONS IN PROTACS” (GLAXOSMITHKLINE INTELLECTUAL PROPERTY DEVELOPMENT LIMITED, priority 2022, published 2025):
Structures can show the parent of a compound that is named as a salt.

Target: T1, Androgen Receptor (Homo sapiens, UniProt P10275, T878A)
T1 construct: the AR gene was modified, using CRISPR/Cas9 editing, so the expressed AR protein included an 11 amino acid HiBiT tag; endogenous in cells; host or cells: clonal LnCaP-derived line, AR gene edited by CRISPR/Cas9
T1 sequence (P10275 whole entry T878A): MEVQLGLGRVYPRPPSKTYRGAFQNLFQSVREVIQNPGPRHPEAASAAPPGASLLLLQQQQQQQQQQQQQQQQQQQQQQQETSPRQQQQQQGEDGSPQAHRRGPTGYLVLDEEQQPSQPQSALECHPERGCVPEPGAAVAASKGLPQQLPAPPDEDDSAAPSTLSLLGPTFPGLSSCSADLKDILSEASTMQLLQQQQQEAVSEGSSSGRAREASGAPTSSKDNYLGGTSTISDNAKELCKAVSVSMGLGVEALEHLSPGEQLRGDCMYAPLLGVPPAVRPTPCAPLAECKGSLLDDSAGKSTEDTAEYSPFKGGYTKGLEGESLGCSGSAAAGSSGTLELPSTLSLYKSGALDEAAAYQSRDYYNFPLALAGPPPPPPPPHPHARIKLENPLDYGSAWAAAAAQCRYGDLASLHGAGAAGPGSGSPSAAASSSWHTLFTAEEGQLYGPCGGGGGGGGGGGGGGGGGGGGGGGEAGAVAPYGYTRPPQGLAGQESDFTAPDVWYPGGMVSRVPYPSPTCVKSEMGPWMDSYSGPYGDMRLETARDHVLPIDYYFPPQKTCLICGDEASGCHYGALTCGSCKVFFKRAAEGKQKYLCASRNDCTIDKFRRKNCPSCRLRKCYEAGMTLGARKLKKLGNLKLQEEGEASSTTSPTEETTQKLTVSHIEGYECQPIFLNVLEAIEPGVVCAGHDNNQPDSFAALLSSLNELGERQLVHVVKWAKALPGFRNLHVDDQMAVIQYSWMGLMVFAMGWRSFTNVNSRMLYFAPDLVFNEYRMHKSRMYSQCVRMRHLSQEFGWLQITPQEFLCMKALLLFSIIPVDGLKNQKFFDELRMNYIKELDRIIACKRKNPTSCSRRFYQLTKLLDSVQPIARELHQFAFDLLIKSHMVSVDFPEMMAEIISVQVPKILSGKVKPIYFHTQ
T1 sequence (Q96SW2 whole entry partner): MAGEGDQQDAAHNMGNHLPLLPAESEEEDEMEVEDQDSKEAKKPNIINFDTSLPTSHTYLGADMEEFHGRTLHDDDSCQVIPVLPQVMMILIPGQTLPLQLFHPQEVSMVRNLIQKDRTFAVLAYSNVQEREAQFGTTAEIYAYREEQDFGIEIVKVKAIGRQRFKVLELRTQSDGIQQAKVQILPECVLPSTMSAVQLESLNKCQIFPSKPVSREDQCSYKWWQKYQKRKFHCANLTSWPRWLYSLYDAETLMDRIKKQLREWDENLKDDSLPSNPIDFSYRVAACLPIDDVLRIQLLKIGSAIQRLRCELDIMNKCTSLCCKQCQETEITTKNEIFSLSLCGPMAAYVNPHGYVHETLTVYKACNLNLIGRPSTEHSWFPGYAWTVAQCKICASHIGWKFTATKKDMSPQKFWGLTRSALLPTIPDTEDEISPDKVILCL
T1 sequence (Q16531 whole entry partner): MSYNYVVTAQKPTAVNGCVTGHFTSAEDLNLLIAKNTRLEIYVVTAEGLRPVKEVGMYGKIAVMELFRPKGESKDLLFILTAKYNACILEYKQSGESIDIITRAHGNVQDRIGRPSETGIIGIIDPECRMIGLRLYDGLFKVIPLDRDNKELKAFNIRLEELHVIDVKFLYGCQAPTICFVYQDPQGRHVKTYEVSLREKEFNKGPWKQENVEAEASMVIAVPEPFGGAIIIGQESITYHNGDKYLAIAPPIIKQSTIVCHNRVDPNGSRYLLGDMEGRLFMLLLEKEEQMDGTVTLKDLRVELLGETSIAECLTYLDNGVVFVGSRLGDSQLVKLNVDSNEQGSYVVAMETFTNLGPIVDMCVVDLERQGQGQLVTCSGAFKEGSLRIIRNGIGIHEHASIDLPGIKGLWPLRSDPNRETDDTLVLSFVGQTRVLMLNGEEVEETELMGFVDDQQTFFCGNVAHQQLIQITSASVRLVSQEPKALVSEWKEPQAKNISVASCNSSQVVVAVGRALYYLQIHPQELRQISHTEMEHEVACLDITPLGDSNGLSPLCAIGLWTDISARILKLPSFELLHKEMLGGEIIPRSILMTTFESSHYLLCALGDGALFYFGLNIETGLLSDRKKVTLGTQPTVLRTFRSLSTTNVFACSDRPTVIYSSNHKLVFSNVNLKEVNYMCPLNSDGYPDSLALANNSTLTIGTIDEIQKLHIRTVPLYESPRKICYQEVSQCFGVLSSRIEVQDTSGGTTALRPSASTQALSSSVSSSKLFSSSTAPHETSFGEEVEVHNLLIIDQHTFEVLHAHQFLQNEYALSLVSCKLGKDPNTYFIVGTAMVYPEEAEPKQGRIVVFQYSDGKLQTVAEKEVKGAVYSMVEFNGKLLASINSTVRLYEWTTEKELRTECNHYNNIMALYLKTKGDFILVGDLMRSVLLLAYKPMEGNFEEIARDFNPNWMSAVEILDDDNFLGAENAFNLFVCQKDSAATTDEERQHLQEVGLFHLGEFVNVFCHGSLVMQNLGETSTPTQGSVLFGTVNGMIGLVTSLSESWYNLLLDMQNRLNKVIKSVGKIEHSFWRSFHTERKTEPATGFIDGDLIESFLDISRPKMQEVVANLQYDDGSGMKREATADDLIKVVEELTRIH
Experiment: Androgen Receptor Degradation Assay (Nano-Glo HiBiT)
Assay type: cell-based
Details: 18 h, HiBiT-tagged AR in human LnCaP cells; for Dmax: LNCaP, read-out: mean asymptote max
Procedure, shortened: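 LnCaP cells with CRISPR-knocked-in N-terminal HiBiT-tagged AR (10,000/well) treated 18 h at 37 °C with PROTACs over 11 threefold concentrations; lytic HiBiT luminescence normalised to DMSO (0%) and cell-free (100%) controls. Relative DC50 = 4-parameter fit inflection; absolute DC50 = 50% degradation interpolation; Dmax = maximum observed degradation.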

Row | SMILES | Dmax [%] | mean relative pDC50
1 | CC1CC(CN2CCC(n3ncc4c(N5CCC(=O)NC5=O)cccc43)CC2)CN1c1ccc(C(=O)N[C@H]2CC[C@H](Oc3ccc(C#N)c(Cl)c3)CC2)nn1 (some centres unmarked) [EAR232, N-((1r,4r)-4-(3-chloro-4-cyanophenoxy)cyclohexyl)-6-(4-((4-(4-(2,4-dioxotetrahydropyrimidin-1(2H)-yl)-1H-indazol-1-yl)piperidin-1-yl)methyl)-2-methylpyrrolidin-1-yl)pyridazine-3-carboxamide] | ≥ 50 | 
2 | N#Cc1ccc(O[C@H]2CC[C@H](NC(=O)c3ccc(N4CCC5(CC(CN6CCC(n7ncc8c(N9CCC(=O)NC9=O)cccc87)CC6)C5)C4)nn3)CC2)cc1Cl (some centres unmarked) [EAR233, N-((1r,4r)-4-(3-chloro-4-cyanophenoxy)cyclohexyl)-6-(2-((4-(4-(2,4-dioxotetrahydropyrimidin-1(2H)-yl)-1H-indazol-1-yl)piperidin-1-yl)methyl)-6-azaspiro[3.4]octan-6-yl)pyridazine-3-carboxamide] | ≥ 50 | 
3 | CC1CN(c2ccc(C(=O)N[C@H]3CC[C@H](Oc4ccc(C#N)c(Cl)c4)CC3)nn2)CCC1CN1CCC(n2ncc3c(N4CCC(=O)NC4=O)cccc32)CC1 (some centres unmarked) [EAR234, N-((1r,4r)-4-(3-chloro-4-cyanophenoxy)cyclohexyl)-6-(4-((4-(4-(2,4-dioxotetrahydropyrimidin-1(2H)-yl)-1H-indazol-1-yl)piperidin-1-yl)methyl)-3-methylpiperidin-1-yl)pyridazine-3-carboxamide] | ≥ 50 | 
4 | N#Cc1ccc(O[C@H]2CC[C@H](NC(=O)c3ccc(N4C[C@@H]5[C@H](CN6CCC(n7ncc8c(N9CCC(=O)NC9=O)cccc87)CC6)[C@@H]5C4)nn3)CC2)cc1Cl [EAR235, N-((1r,4R)-4-(3-chloro-4-cyanophenoxy)cyclohexyl)-6-((1R,5S,6R)-6-((4-(4-(2,4-dioxotetrahydropyrimidin-1(2H)-yl)-1H-indazol-1-yl)piperidin-1-yl)methyl)-3-azabicyclo[3.1.0]hexan-3-yl)pyridazine-3-carboxamide] | ≥ 50 | 
5 | N#Cc1ccc(O[C@H]2CC[C@H](NC(=O)c3ccc(N4CC5(CCC5CN5CCC(n6ncc7c(N8CCC(=O)NC8=O)cccc76)CC5)C4)nn3)CC2)cc1Cl (some centres unmarked) [EAR236, N-((1r,4r)-4-(3-chloro-4-cyanophenoxy)cyclohexyl)-6-(5-((4-(4-(2,4-dioxotetrahydropyrimidin-1(2H)-yl)-1H-indazol-1-yl)piperidin-1-yl)methyl)-2-azaspiro[3.3]heptan-2-yl)pyridazine-3-carboxamide] | ≥ 50 | 
6 | N#Cc1ccc(O[C@H]2CC[C@H](NC(=O)c3ccc(N4CCC5(CC4)CC(CN4CCC(n6ncc7c(N8CCC(=O)NC8=O)cccc76)CC4)C5)nn3)CC2)cc1Cl [EAR237, N-((1r,4r)-4-(3-chloro-4-cyanophenoxy)cyclohexyl)-6-(2-((4-(4-(2,4-dioxotetrahydropyrimidin-1(2H)-yl)-1H-indazol-1-yl)piperidin-1-yl)methyl)-7-azaspiro[3.5]nonan-7-yl)pyridazine-3-carboxamide] | ≥ 50 | 
7 | N#Cc1ccc(O[C@H]2CC[C@H](NC(=O)c3ccc(N4CC[C@H](CN5CCC(n6ncc7c(N8CCC(=O)NC8=O)cccc76)CC5)C4)nn3)CC2)cc1Cl [EAR238, N-((1r,4R)-4-(3-chloro-4-cyanophenoxy)cyclohexyl)-6-((R)-3-((4-(4-(2,4-dioxotetrahydropyrimidin-1(2H)-yl)-1H-indazol-1-yl)piperidin-1-yl)methyl)pyrrolidin-1-yl)pyridazine-3-carboxamide] | ≥ 50 | 
8 | N#Cc1ccc(O[C@H]2CC[C@H](NC(=O)c3ccc(N4CC[C@@H](CN5CCC(n6ncc7c(N8CCC(=O)NC8=O)cccc76)CC5)C4)nn3)CC2)cc1Cl [EAR239, N-((1r,4R)-4-(3-chloro-4-cyanophenoxy)cyclohexyl)-6-((S)-3-((4-(4-(2,4-dioxotetrahydropyrimidin-1(2H)-yl)-1H-indazol-1-yl)piperidin-1-yl)methyl)pyrrolidin-1-yl)pyridazine-3-carboxamide] | ≥ 50 | 
9 | CC1(CN2CCC(n3ncc4c(N5CCC(=O)NC5=O)cccc43)CC2)CN(c2ccc(C(=O)N[C@H]3CC[C@H](Oc4ccc(C#N)c(Cl)c4)CC3)nn2)C1 [EAR240, N-((1r,4r)-4-(3-chloro-4-cyanophenoxy)cyclohexyl)-6-(3-((4-(4-(2,4-dioxotetrahydropyrimidin-1(2H)-yl)-1H-indazol-1-yl)piperidin-1-yl)methyl)-3-methylazetidin-1-yl)pyridazine-3-carboxamide] | ≥ 50 | 
10 | CC1(CN2CCC(n3ncc4c(N5CCC(=O)NC5=O)cccc43)CC2)CCN(c2ccc(C(=O)N[C@H]3CC[C@H](Oc4ccc(C#N)c(Cl)c4)CC3)nn2)C1 (some centres unmarked) [EAR241, N-((1r,4r)-4-(3-chloro-4-cyanophenoxy)cyclohexyl)-6-(3-((4-(4-(2,4-dioxotetrahydropyrimidin-1(2H)-yl)-1H-indazol-1-yl)piperidin-1-yl)methyl)-3-methylpyrrolidin-1-yl)pyridazine-3-carboxamide] | ≥ 50 | 
11 | CC1(CN2CCC(n3ncc4c(N5CCC(=O)NC5=O)cccc43)CC2)CCN(c2ccc(C(=O)N[C@H]3CC[C@H](Oc4ccc(C#N)c(Cl)c4)CC3)nn2)CC1 [EAR242, N-((1r,4r)-4-(3-chloro-4-cyanophenoxy)cyclohexyl)-6-(4-((4-(4-(2,4-dioxotetrahydropyrimidin-1(2H)-yl)-1H-indazol-1-yl)piperidin-1-yl)methyl)-4-methylpiperidin-1-yl)pyridazine-3-carboxamide] | ≥ 50 | 
12 | N#Cc1ccc(O[C@H]2CC[C@H](NC(=O)c3ccc(N4CCOC(CCN5CCC(n6ncc7c(N8CCC(=O)NC8=O)cccc76)CC5)C4)nn3)CC2)cc1Cl (some centres unmarked) [EAR243, N-((1r,4r)-4-(3-chloro-4-cyanophenoxy)cyclohexyl)-6-(2-(2-(4-(4-(2,4-dioxotetrahydropyrimidin-1(2H)-yl)-1H-indazol-1-yl)piperidin-1-yl)ethyl)morpholino)pyridazine-3-carboxamide] | ≥ 50 | 
13 | N#Cc1ccc(O[C@H]2CC[C@H](NC(=O)c3ccc(N4C[C@]5(CN6CCC(n7ncc8c(N9CCC(=O)NC9=O)cccc87)CC6)C[C@]5(C(F)(F)F)C4)nn3)CC2)cc1Cl [EAR244, N-((1r,4R)-4-(3-chloro-4-cyanophenoxy)cyclohexyl)-6-((1R,5R)-1-((4-(4-(2,4-dioxotetrahydropyrimidin-1(2H)-yl)-1H-indazol-1-yl)piperidin-1-yl)methyl)-5-(trifluoromethyl)-3-azabicyclo[3.1.0]hexan-3-yl)pyridazine-3-carboxamide] | ≥ 50 | 
14 | CC1(C)[C@H](NC(=O)c2ccc(N3CCC(CN4CCC(n5ncc6c(N7CCC(=O)NC7=O)nccc65)CC4)CC3)nc2)C(C)(C)[C@H]1Oc1cnc(C#N)c(Cl)c1 [EAR257, N-((1r,3r)-3-((5-Chloro-6-cyanopyridin-3-yl)oxy)-2,2,4,4-tetramethylcyclobutyl)-6-(4-((4-(4-(2,4-dioxotetrahydropyrimidin-1(2H)-yl)-1H-pyrazolo[4,3-c]pyridin-1-yl)piperidin-1-yl)methyl)piperidin-1-yl)nicotinamide] | ≥ 50 | 
15 | CC1(C)[C@H](NC(=O)c2ccc(N3CCC(CN4CCC(n5ccc6c(N7CCC(=O)NC7=O)nccc65)CC4)CC3)nc2)C(C)(C)[C@H]1Oc1cnc(C#N)c(Cl)c1 [EAR259, N-((1r,3r)-3-((5-Chloro-6-cyanopyridin-3-yl)oxy)-2,2,4,4-tetramethylcyclobutyl)-6-(4-((4-(4-(2,4-dioxotetrahydropyrimidin-1(2H)-yl)-1H-pyrrolo[3,2-c]pyridin-1-yl)piperidin-1-yl)methyl)piperidin-1-yl)nicotinamide] | ≥ 50 | 
16 | CC1(C)[C@H](NC(=O)c2ccc(N3CCC(CN4CCC(n5ncc6c(N7CCC(=O)NC7=O)ccnc65)CC4)CC3)cn2)C(C)(C)[C@H]1Oc1ccc(C#N)c2ncccc12 [EAR260, N-((1r,3r)-3-((8-Cyanoquinolin-5-yl)oxy)-2,2,4,4-tetramethylcyclobutyl)-5-(4-((4-(4-(2,4-dioxotetrahydropyrimidin-1(2H)-yl)-1H-pyrazolo[3,4-b]pyridin-1-yl)piperidin-1-yl)methyl)piperidin-1-yl)picolinamide hydrochloride] | ≥ 50 | 
17 | CC1(C)[C@H](NC(=O)c2ncc(N3CCC(CN4CCC(n5ncc6c(N7CCC(=O)NC7=O)cccc65)CC4)CC3)cn2)C(C)(C)[C@H]1Oc1cnc(C#N)c(Cl)c1 [EAR268, N-((1r,3r)-3-((5-Chloro-6-cyanopyridin-3-yl)oxy)-2,2,4,4-tetramethylcyclobutyl)-5-(4-((4-(4-(2,4-dioxotetrahydropyrimidin-1(2H)-yl)-1H-indazol-1-yl)piperidin-1-yl)methyl)piperidin-1-yl)pyrimidine-2-carboxamide] | ≥ 50 | 5.54
18 | CC1(C)[C@H](NC(=O)c2ncc(N3CCC(CN4CCC(n5ccc6c(N7CCC(=O)NC7=O)ccnc65)CC4)CC3)cn2)C(C)(C)[C@H]1Oc1cnc(C#N)c(Cl)c1 [EAR269, N-((1r,3r)-3-((5-Chloro-6-cyanopyridin-3-yl)oxy)-2,2,4,4-tetramethylcyclobutyl)-5-(4-((4-(4-(2,4-dioxotetrahydropyrimidin-1(2H)-yl)-1H-pyrrolo[2,3-b]pyridin-1-yl)piperidin-1-yl)methyl)piperidin-1-yl)pyrimidine-2-carboxamide] | ≥ 50 | 
19 | CC1(C)[C@H](NC(=O)c2ncc(N3CCC(CN4CCC(n5ncc6c(N7CCC(=O)NC7=O)ccnc65)CC4)CC3)cn2)C(C)(C)[C@H]1Oc1ccc(C#N)c(Cl)c1 [EAR272, N-((1r,3r)-3-(3-Chloro-4-cyanophenoxy)-2,2,4,4-tetramethylcyclobutyl)-5-(4-((4-(4-(2,4-dioxotetrahydropyrimidin-1(2H)-yl)-1H-pyrazolo[3,4-b]pyridin-1-yl)piperidin-1-yl)methyl)piperidin-1-yl)pyrimidine-2-carboxamide] | ≥ 50 | 
